# Measurements: publication PMC3130785, “Small Compound 6-O-Angeloylplenolin Induces Mitotic Arrest and Exhibits Therapeutic Potentials in Multiple Myeloma” (PLoS ONE, 2011)
# Key:
# Type in all cases: cell-based, human
# [1] = tested on: cyclin B1; experiment: Western blotting; conditions: U266, MM.1S and CD138+ primary cells
# Method: (§1) Cell pellets were lysed in RIPA buffer containing 50 mM Tris pH 8.0, 150 mM NaCl, 0.1% SDS, 0.5% deoxycholate, 1% NP-40, 1 mM DTT, 1 mM NaF, 1 mM sodium vanadate, and protease inhibitors cocktail (Sigma). For immunoprecipitations, cells were lysed on ice for 15 minutes in RIPA buffer. Lysates were centrifuged. The supernatant was incubated with indicated antibodies overnight, after which protein A/G Plus beads (Santa Cruz Biotechnology) were added and incubated for 3 h. The beads were washed 4 times in RIPA buffer. Then the beads were resuspended in 1× sample buffer and boiled for 3 min. Protein extracts were quantitated and loaded on 8% to 12% sodium dodecyl sulfate polyacrylamide gel, electrophoresed, and transferred to a nitrocellulose membrane (Whatman). The membrane was incubated with primary antibody, washed, and incubated with horseradish peroxidase (HRP)–conjugated secondary antibody (Pierce). Detection was performed by using a chemiluminescent western detection kit (Cell Signaling). […]
# (§2) Figure 3 6-OAP accumulates cyclin B1 which is required for mitotic arrest. […] After co-incubation with 6-OAP for 18 h, the cells were then harvested and detected by Leica DMI 400B microscope (D), or analyzed by flow cytometry for the cell cycle distribution (E). To evaluate cell growth, the cells were treated with 6-OAP for indicated time points and analyzed by trypan blue exclusion assay (F). […] (H) U266 cells were treated without or with 7.5 µM 6-OAP for 24 h, and stained with anti-α-tubulin and anti-BubR1 antibodies to visualize microtubules (green), BubR1 (red), and DAPI to counter stained DNA (blue), and analyzed by confocal microscopy. […]
# [2] = tested on: cyclin D1; experiment: Western blotting; conditions: U266 and MM1.S cells; 12 to 48 h
# Method: as §1, §2
# [3] = tested on: pCdc2 (Y15); experiment: Western blotting; conditions: U266, MM.1S and CD138+ primary cells
# Method: as §1, §2
# [4] = tested on: pJak2 and pStat3; experiment: Western blotting, IL-6 stimulation; conditions: MM.1S
# Method: as §1
# Figure 5 6-OAP overcomes the protective effects of IL-6, IGF-I and BMSCs on MM cells. […] Cell proliferation was assessed by MTT assay. […] Cell proliferation was assessed by MTT assay. *p<.01,** p<.05. […]
smiles,measurement,setting,value
"CC=C(C)C(=O)OC1C2C(CC(C)C3C=CC(=O)C31C)OC(=O)C2C (centres unmarked) [6-OAP, 6-O-angeloylplenolin]",cyclin B1 level,[1],increase of cyclin B1
same,cyclin D1 level,[2],down-regulated
same,pCdc2 (Y15) level,[3],decrease of tyrosine-15-phosphorylated Cdc2
same,pStat3 in cells upon IL-6,"[4]; IL-6 10 ng/ml, then 6-OAP 5 to 10 µM for 12 h",dramatically reduced
same,IL-6-induced pJak2 and pStat3,"[4]; pretreatment 6-OAP for 12 hours, IL-6 10 ng/ml 10 to 30 min",markedly inhibited IL-6-induced upregulation of pJak2 and pStat3
